US20250171417A1, “HETEROCYCLIC DERIVATIVE, AND COMPOSITION AND PHARMACEUTICAL USE THEREOF” (Xizang Haisco Pharmaceutical Co., Ltd., priority 2021, published 2025)

Test system: Prostate cancer cells 22RV1
Experiment: Experiment on inhibiting 22RV1 cell proliferation (CellTiter-Glo, 7 days)
Format: cell-based
Details: Homo sapiens, 168 h, 22RV1 cells, 7 days incubation, cells with nM printed beside the value, read-out: IC50 values for inhibition of 22RVI cells
Experimental: Prostate cancer cells 22RV1 were purchased from ATCC, the cell medium was RPMI 1640+10% FBS, and the cells were cultured in an incubator at 37° C. under 5% CO2. On day 1, the cells in the exponential growth phase were collected. With a 1% css-FBS phenol red-free medium, the cell suspension was adjusted to a corresponding concentration, plated at 2000 cells/well and incubated overnight. On day 2, compounds at different concentrations were added, and the plate was placed in the incubator and incubated for further 7 days. After the incubation was completed, according to operation instructions for a CellTiter-Glo kit (Promega, G7573), 50 μL of CellTiter-Glo reagents, which were already pre-melted and equilibrated to room temperature, were added to each well, and the mixtures were uniformly mixed for 2 min using a microplate shaker. The plate was placed at room temperature for 10 min. and then […] signal values were measured using a microplate reader (PHERAstar FSX). The results were processed according to formula (I), the inhibition rate of the compound at different concentrations was calculated, and the IC50 value of the compound with an inhibition rate of 50% was calculated using origin9.2 software with DoseResp function, wherein RLUcompound was the readout of the treated group, and RLUcontrol was the average value of the DMSO vehicle control group.

Compound | IC50 [nM]
CC(C)(C(=O)Nc1ccc(C(F)(F)F)cc1-n1cccn1)n1cc(C#CC2CN(c3ccc4c(c3)C(=O)N(C3CCC(=O)NC3=O)C4=O)C2)cn1 (centres unmarked) [Compound 51, N-(2-(1H-pyrazol-1-yl)-4-(trifluoromethyl)phenyl)-2-(4-((1-(2-(2,6-dioxopiperidin-3-yl)-1,3-dioxoisoindolin-5-yl)azetidin-3-yl)ethynyl)-1H-pyrazol-1-yl)-2-methylpropanamide] | < 50
Cc1cc(C(F)(F)F)ccc1NC(=O)C(C)(C)n1cc(C#CC2CN(c3ccc4c(c3)C(=O)N(C3CCC(=O)NC3=O)C4=O)C2)cn1 (centres unmarked) [Compound 59] | < 50
O=C1CCC(N2C(=O)c3ccc(N4CC(C#Cc5cnn(C6(C(=O)Nc7ccc(C(F)(F)F)cc7Cl)CC6)c5)C4)cc3C2=O)C(=O)N1 (centres unmarked) [Compound 72, N-(2-chloro-4-(trifluoromethyl)phenyl)-1-(4-((1-(2-(2,6-dioxopiperidin-3-yl)-1,3-dioxoisoindolin-5-yl)azetidin-3-yl)ethynyl)-1H-pyrazol-1-yl)cyclopropane-1-carboxamide] | < 50
[2H]C1([2H])C([2H])([2H])C(C(=O)Nc2ccc(C(F)(F)F)cc2Cl)(n2cc(C#CC3CN(c4ccc5c(c4)C(=O)N(C4CCC(=O)NC4=O)C5=O)C3)cn2)C1([2H])[2H] (centres unmarked) [Compound 113, N-(2-chloro-4-(trifluoromethyl)phenyl)-1-(4-((1-(2-(2,6-dioxopiperidin-3-yl)-1,3-dioxoisoindolin-5-yl)azetidin-3-yl)ethynyl)-1H-pyrazol-1-yl)cyclobutane-2,2,3,3,4,4-d6-1-carboxamide] | < 50

The remaining lines, values ahead:

IC50 [nM] | Compound
< 50 | Cn1c(C(F)(F)F)ccc(NC(=O)C(C)(C)n2cc(C#CC3CN(c4ccc5c(c4)C(=O)N(C4CCC(=O)NC4=O)C5=O)C3)cn2)c1=O (centres unmarked) [Compound 178]
< 50 | Cc1c(C#CC2CN(c3ccc4c(c3)C(=O)N(C3CCC(=O)NC3=O)C4=O)C2)cnn1C1(C(=O)Nc2ccc(C(F)(F)F)cc2Cl)CCC1 (centres unmarked) [Compound 163, N-(2-chloro-4-(trifluoromethyl)phenyl)-1-(4-((1-(2-(2,6-dioxopiperidin-3-yl)-1,3-dioxoisoindolin-5-yl)azetidin-3-yl)ethynyl)-5-methyl-1H-pyrazol-1-yl)cyclobutane-1-carboxamide]
< 100 | CC#Cc1cc(C(F)(F)F)ccc1NC(=O)C(C)(C)n1cc(C#CC2CN(c3ccc4c(c3)C(=O)N(C3CCC(=O)NC3=O)C4=O)C2)c(C#N)n1 (centres unmarked) [Compound 202, 2-(3-cyano-4-((1-(2-(2,6-dioxopiperidin-3-yl)-1,3-dioxoisoindolin-5-yl)azetidin-3-yl)ethynyl)-1H-pyrazol-1-yl)-2-methyl-N-(2-(prop-1-yn-1-yl)-4-(trifluoromethyl)phenyl) propanamide]
< 100 | C#Cc1cc(C#N)ccc1NC(=O)C(C)(C)n1cc(C#CC2CN(c3ccc4c(c3)C(=O)N(C3CCC(=O)NC3=O)C4=O)C2)cn1 (centres unmarked) [Compound 189, N-(4-cyano-2-ethynylphenyl)-2-(4-((1-(2-(2,6-dioxopiperidin-3-yl)-1,3-dioxoisoindolin-5-yl)azetidin-3-yl)ethynyl)-1H-pyrazol-1-yl)-2-methylpropanamide]
< 50 | CC(C)(C(=O)Nc1ccc(C#N)cc1-n1cccn1)n1cc(C#CC2CN(c3ccc4c(c3)C(=O)N(C3CCC(=O)NC3=O)C4=O)C2)cn1 (centres unmarked) [Compound 172, N-(4-cyano-2-(1H-pyrazol-1-yl)phenyl)-2-(4-((1-(2-(2,6-dioxopiperidin-3-yl)-1,3-dioxoisoindolin-5-yl)azetidin-3-yl)ethynyl)-1H-pyrazol-1-yl)-2-methylpropanamide]
< 100 | [2H]C([2H])([2H])C(C(=O)Nc1ccc(C(F)(F)F)cc1C1CC1)(n1cc(C#CC2CN(c3ccc4c(c3)C(=O)N(C3CCC(=O)NC3=O)C4=O)C2)cn1)C([2H])([2H])[2H] (centres unmarked) [Compound 187, N-(2-cyclopropyl-4-(trifluoromethyl)phenyl)-2-(4-((1-(2-(2,6-dioxopiperidin-3-yl)-1,3-dioxoisoindolin-5-yl)azetidin-3-yl)ethynyl)-1H-pyrazol-1-yl)-2,2-(dimethyl-d6) acetamide]

Same assay, conditions: Homo sapiens, 168 h, 22RV1 cells, 7 days incubation, cells without a unit of their own (μM), read-out: IC50 values for inhibition of 22RVI cells

Compound | IC50 [nM]
CC(C)(C(=O)Nc1ccc(C#N)c2ccccc12)n1cc(C#CC2CN(c3cc4c(cc3F)C(=O)N(C3CCC(=O)NC3=O)C4=O)C2)cn1 (centres unmarked) [Compound 81] | < 1000
N#Cc1ccc(NC(=O)C2(n3cc(C#CC4CN(c5cc6c(cc5F)C(=O)N(C5CCC(=O)NC5=O)C6=O)C4)cn3)CCC2)c2ccccc12 (centres unmarked) [Compound 80] | < 1000
CC(C)(C(=O)Nc1ccc(C(F)(F)F)cc1C#N)n1cc(C#CC2CN(c3ccc4c(c3)C(=O)N(C3CCC(=O)NC3=O)C4=O)C2)cn1 (centres unmarked) [Compound 42, N-(2-cyano-4-(trifluoromethyl)phenyl)-2-(4-((1-(2-(2,6-dioxopiperidin-3-yl)-1,3-dioxoisoindolin-5-yl)azetidin-3-yl)ethynyl)-1H-pyrazol-1-yl)-2-methylpropanamide] | < 1000
Cc1cc(NC(=O)C(C)(C)n2cc(C#CC3CN(c4ccc5c(c4)C(=O)N(C4CCC(=O)NC4=O)C5=O)C3)cn2)ccc1Cl (centres unmarked) [Compound 16, N-(4-chloro-3-methylphenyl)-2-(4-((1-(2-(2,6-dioxopiperidin-3-yl)-1,3-dioxoisoindolin-5-yl)azetidin-3-yl)ethynyl)-1H-pyrazol-1-yl)-2-methylpropanamide] | < 1000
CC(C)(C(=O)Nc1ccc(C(F)(F)F)c(Cl)c1)n1cc(C#CC2CN(c3ccc4c(c3)C(=O)N(C3CCC(=O)NC3=O)C4=O)C2)cn1 (centres unmarked) [Compound 17, N-(3-chloro-4-(trifluoromethyl)phenyl)-2-(4-((1-(2-(2,6-dioxopiperidin-3-yl)-1,3-dioxoisoindolin-5-yl)azetidin-3-yl)ethynyl)-1H-pyrazol-1-yl)-2-methylpropanamide] | < 1000
CCC(C)(C(=O)Nc1ccc(C#N)c(C(F)(F)F)c1)n1cc(C#CC2CN(c3ccc4c(c3)C(=O)N(C3CCC(=O)NC3=O)C4=O)C2)cn1 (centres unmarked) [Compound 46, N-(4-cyano-3-(trifluoromethyl)phenyl)-2-(4-((1-(2-(2,6-dioxopiperidin-3-yl)-1,3-dioxoisoindolin-S-yl)azetidin-3-yl)ethynyl)-1H-pyrazol-1-yl)-2-methylbutanamide] | < 1000
CC(C)(C(=O)Nc1ccc(C(F)(F)F)cc1-c1ccccc1)n1cc(C#CC2CN(c3ccc4c(c3)C(=O)N(C3CCC(=O)NC3=O)C4=O)C2)cn1 (centres unmarked) [Compound 112, 2-(4-((1-(2-(2,6-dioxopiperidin-3-yl)-1,3-dioxoisoindolin-5-yl)azetidin-3-yl)ethynyl)-1H-pyrazol-1-yl)-2-methyl-N-(5-(trifluoromethyl)-[1,1′-biphenyl]-2-yl) propanamide] | < 1000
CC(C)(C(=O)Nc1cc(Cl)c(C(F)(F)F)c(Cl)c1)n1cc(C#CC2CN(c3ccc4c(c3)C(=O)N(C3CCC(=O)NC3=O)C4=O)C2)cn1 (centres unmarked) [Compound 22, N-(3,5-dichloro-4-(trifluoromethyl)phenyl)-2-(4-((1-(2-(2,6-dioxopiperidin-3-yl)-1,3-dioxoisoindolin-5-yl)azetidin-3-yl)ethynyl)-1H-pyrazol-1-yl)-2-methylpropanamide] | < 1000
CC(C)(C(=O)Nc1ccc([N+](=O)[O-])c(C(F)(F)F)c1)n1cc(C#CC2CN(c3ccc4c(c3)C(=O)N(C3CCC(=O)NC3=O)C4=O)C2)cn1 (centres unmarked) [Compound 26, 2-(4-((1-(2-(2,6-dioxopiperidin-3-yl)-1,3-dioxoisoindolin-5-yl)azetidin-3-yl)ethynyl)-1H-pyrazol-1-yl)-2-methyl-N-(4-nitro-3-(trifluoromethyl)phenyl)propanamide] | < 1000
CC(C)(C(=O)Nc1ccc(C#N)cc1C(F)(F)F)n1cc(C#CC2CN(c3ccc4c(c3)C(=O)N(C3CCC(=O)NC3=O)C4=O)C2)cn1 (centres unmarked) [Compound 44, N-(4-cyano-2-(trifluoromethyl)phenyl)-2-(4-((1-(2-(2,6-dioxopiperidin-3-yl)-1,3-dioxoisoindolin-5-yl)azetidin-3-yl)ethynyl)-1H-pyrazol-1-yl)-2-methylpropanamide] | < 1000
CC(C)(C(=O)Nc1ccc([N+](=O)[O-])c(Cl)c1)n1cc(C#CC2CN(c3ccc4c(c3)C(=O)N(C3CCC(=O)NC3=O)C4=O)C2)cn1 (centres unmarked) [Compound 25, N-(3-chloro-4-nitrophenyl)-2-(4-((1-(2-(2,6-dioxopiperidin-3-yl)-1,3-dioxoisoindolin-5-yl)azetidin-3-yl)ethynyl)-1H-pyrazol-1-yl)-2-methylpropanamide] | < 1000

Other lines, results leading:

IC50 [nM] | Compound
< 1000 | CC(C)(C(=O)Nc1ccc(C(F)(F)F)cc1Cl)n1cnc2cc(C#CC3CN(c4ccc5c(c4)C(=O)N(C4CCC(=O)NC4=O)C5=O)C3)ccc21 (centres unmarked) [Compound 162, N-(2-chloro-4-(trifluoromethyl)phenyl)-2-(5-((1-(2-(2,6-dioxopiperidin-3-yl)-1,3-dioxoisoindolin-5-yl)azetidin-3-yl)ethynyl)-1H-benzo[d]imidazol-1-yl)-2-methylpropanamide]
< 1000 | CC(C)(C(=O)Nc1ccc(C(F)(F)F)cc1Cl)n1cnc2ccc(C#CC3CN(c4ccc5c(c4)C(=O)N(C4CCC(=O)NC4=O)C5=O)C3)cc21 (centres unmarked) [Compound 161, N-(2-chloro-4-(trifluoromethyl)phenyl)-2-(6-((1-(2-(2,6-dioxopiperidin-3-yl)-1,3-dioxoisoindolin-5-yl)azetidin-3-yl)ethynyl)-1H-benzo[d]imidazol-1-yl)-2-methylpropanamide]
